The values that follow come from patent US8778888B2, “Cystine knot peptides binding to alpha IIb beta 3 integrins and methods of use” (The Board of Trustees of the Leland Stanford Junior …, priority 2009, dated 2014).

For the assay, the target named is T1, αIIbβ3 integrin (K562-αIIbβ3 cells) (Homo sapiens, UniProt P05106+P08514).
T1 construct: expressed in transfected cells; host or cells: K562 leukemia cells (from S. Blystone)
T1 sequence (P08514 32-887 limits assumed): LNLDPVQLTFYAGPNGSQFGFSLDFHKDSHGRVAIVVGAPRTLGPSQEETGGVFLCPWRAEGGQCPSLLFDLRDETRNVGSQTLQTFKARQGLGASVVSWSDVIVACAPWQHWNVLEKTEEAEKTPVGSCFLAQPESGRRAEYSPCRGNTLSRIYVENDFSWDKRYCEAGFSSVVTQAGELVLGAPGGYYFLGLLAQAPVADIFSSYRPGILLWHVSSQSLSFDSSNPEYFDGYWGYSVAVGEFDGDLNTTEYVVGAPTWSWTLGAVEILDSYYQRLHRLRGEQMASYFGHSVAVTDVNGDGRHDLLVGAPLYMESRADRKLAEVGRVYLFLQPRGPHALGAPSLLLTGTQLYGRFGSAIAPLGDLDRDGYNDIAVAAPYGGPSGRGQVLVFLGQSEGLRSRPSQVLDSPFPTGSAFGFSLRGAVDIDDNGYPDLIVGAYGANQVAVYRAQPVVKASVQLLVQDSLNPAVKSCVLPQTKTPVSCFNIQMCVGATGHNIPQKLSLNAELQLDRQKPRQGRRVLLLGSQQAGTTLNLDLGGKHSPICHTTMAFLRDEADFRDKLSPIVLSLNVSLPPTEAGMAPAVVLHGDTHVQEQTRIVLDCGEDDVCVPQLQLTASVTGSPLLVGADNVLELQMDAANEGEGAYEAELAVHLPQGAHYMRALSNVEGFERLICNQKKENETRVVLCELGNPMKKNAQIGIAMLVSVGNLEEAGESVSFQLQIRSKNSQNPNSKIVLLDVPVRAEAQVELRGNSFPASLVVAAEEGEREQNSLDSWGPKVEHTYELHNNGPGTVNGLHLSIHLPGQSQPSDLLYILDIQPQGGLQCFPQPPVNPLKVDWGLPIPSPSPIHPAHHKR
T1 sequence (P08514 891-1039 partner limits assumed): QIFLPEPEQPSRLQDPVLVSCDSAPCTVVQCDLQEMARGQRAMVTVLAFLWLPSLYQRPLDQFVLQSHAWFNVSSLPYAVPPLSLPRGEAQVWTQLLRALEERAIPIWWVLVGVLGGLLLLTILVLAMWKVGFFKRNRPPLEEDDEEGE
T1 sequence (P05106 27-788): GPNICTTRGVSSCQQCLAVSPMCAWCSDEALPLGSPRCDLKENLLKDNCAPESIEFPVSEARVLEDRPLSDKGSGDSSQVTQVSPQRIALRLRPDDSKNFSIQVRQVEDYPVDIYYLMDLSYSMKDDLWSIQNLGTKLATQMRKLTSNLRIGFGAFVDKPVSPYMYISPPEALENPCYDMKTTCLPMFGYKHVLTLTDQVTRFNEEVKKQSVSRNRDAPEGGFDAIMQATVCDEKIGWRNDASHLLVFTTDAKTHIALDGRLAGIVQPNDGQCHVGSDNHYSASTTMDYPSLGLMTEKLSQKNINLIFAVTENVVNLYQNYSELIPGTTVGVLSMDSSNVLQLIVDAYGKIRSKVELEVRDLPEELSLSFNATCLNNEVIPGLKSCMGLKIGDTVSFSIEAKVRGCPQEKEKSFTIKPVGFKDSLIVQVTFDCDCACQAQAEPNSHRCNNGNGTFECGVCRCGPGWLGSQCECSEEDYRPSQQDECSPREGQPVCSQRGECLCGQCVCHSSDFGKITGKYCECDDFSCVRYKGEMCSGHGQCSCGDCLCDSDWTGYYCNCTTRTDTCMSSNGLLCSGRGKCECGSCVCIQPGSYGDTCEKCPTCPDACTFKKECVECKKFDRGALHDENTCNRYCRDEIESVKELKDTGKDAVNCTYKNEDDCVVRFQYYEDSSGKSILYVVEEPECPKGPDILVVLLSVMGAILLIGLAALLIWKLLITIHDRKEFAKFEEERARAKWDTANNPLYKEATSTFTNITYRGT
Kind of assay: Cell binding assay on K562-αIIbβ3 cells (flow cytometry). Particulars: K562-αIIbβ3 versus K562-αvβ3 cells. As for the experimental part: K562 cells stably expressing αIIbβ3, αvβ3, or αvβ5 were obtained from S. Blystone and maintained in IMDM media (Gibco) containing 10% FBS and 1.0 mg/mL geneticin. For binding assays, 10^5 cells were suspended in IBB, and varying concentrations of AgRP peptides were added. After 3 hour incubation at 4° C., the cells were centrifuged, aspirated, and resuspended in ice-cold BPBS containing a 1:20 dilution of fluorescein-conjugated goat anti-His antibody (Bethyl) for […]. The cells were then centrifuged, aspirated, and stored as pellets on ice until analysis by flow cytometry using a BD FACS Caliber instrument Becton Dickinson. Binding data was analyzed with FlowJo (Treestar, Inc.) and data was fit to sigmoidal plots using Kaleidagraph (Synergy Software) to calculate equilibrium dissociation constants. Experiments were performed at least 3 times and data are presented as average values with standard deviations.
To determine the integrin binding affinities and specificities of the engineered AgRP peptides, direct binding assays were performed using K562 leukemia cells that have been transfected to stably express different integrin receptors See J. Cell Biol. 127(4) (1994). Cells were incubated in the presence of varying concentrations of AgRP peptides at 4° C., to minimize receptor internalization, followed by staining with a fluorescein-conjugated anti-hexahistidine antibody and analysis by flow cytometry. Equilibrium dissociation constants (KD values) were determined by plotting AgRP peptide concentration (log scale) versus normalized mean fluorescence intensity, then fitting the data to a sigmoidal curve.
As to `CC(C)C[C@@H]1NC(=O)[C@@H]2CSSC[C@@H]3NC(=O)[C@H]([C@@H](C)O)NC(=O)[C@H](C)NC(=O)[C@H](C)NC(=O)[C@@H]4CCCN4C(=O)[C@H](CC(=O)O)NC(=O)[C@H](CSSC[C@H](NC(=O)CNC(=O)[C@H](CCCNC(=N)N)NC(=O)[C@@H]4CCCN4C(=O)[C@H](CCCCN)NC(=O)[C@H](CC(=O)O)NC(=O)[C@H](CC(=O)O)NC(=O)[C@H](CC(=O)O)NC(=O)[C@H](CC(=O)O)NC(=O)[C@H](CCCCN)NC(=O)[C@H](Cc4ccc(O)cc4)NC(=O)[C@H](CC(=O)O)NC(=O)[C@@H](NC(=O)[C@@H](N)Cc4ccc(O)cc4)C(C)C)C(=O)N[C@@H](C(C)C)C(=O)N[C@@H](CCCNC(=N)N)C(=O)N[C@@H](CC(C)C)C(=O)N[C@@H](Cc4c[nH]cn4)C(=O)N[C@@H](CCC(=O)O)C(=O)N[C@@H](CO)C(=O)N2)NC(=O)[C@H](CSSC[C@@H](C(=O)N[C@@H](CCCNC(=N)N)C(=O)N[C@H](C(=O)N[C@@H](CCCNC(=N)N)C(=O)N[C@@H](Cc2c[nH]cn2)C(=O)N[C@@H](Cc2c[nH]cn2)C(=O)N[C@@H](Cc2c[nH]cn2)C(=O)N[C@@H](Cc2c[nH]cn2)C(=O)N[C@@H](Cc2c[nH]cn2)C(=O)N[C@@H](Cc2c[nH]cn2)C(=O)O)[C@@H](C)O)NC(=O)[C@H](Cc2ccc(O)cc2)NC(=O)[C@@H]2CSSC[C@H](NC(=O)[C@H](Cc4ccc(O)cc4)NC3=O)C(=O)N[C@@H](CC(N)=O)C(=O)N[C@@H](CCCCN)C(=O)N[C@@H](CCCNC(=N)N)C(=O)NCC(=O)N[C@@H](CC(=O)O)C(=O)N[C@@H](Cc3c[nH]c4ccccc34)C(=O)N[C@@H](CCCNC(=N)N)C(=O)N[C@@H](CO)C(=O)N[C@@H](CCCCN)C(=O)N2)NC(=O)[C@@H]2CCCN2C(=O)[C@H](C(C)C)NC(=O)[C@H](CCC(N)=O)NC(=O)[C@H](CCC(N)=O)NC(=O)CNC1=O` [Clone 2bJ], the “integrin binding specificity on K562 cell lines” value is recorded as “bound K562-αIIbβ3 cells only”.
Take `CC(C)C[C@@H]1NC(=O)[C@@H]2CSSC[C@@H]3NC(=O)[C@H]([C@@H](C)O)NC(=O)[C@H](C)NC(=O)[C@H](C)NC(=O)[C@@H]4CCCN4C(=O)[C@H](CC(=O)O)NC(=O)[C@H](CSSC[C@H](NC(=O)CNC(=O)[C@H](CCCNC(=N)N)NC(=O)[C@@H]4CCCN4C(=O)[C@H](CCCCN)NC(=O)[C@H](CC(=O)O)NC(=O)[C@H](CC(=O)O)NC(=O)[C@H](CC(=O)O)NC(=O)[C@H](CC(=O)O)NC(=O)[C@H](CCCCN)NC(=O)[C@H](Cc4ccc(O)cc4)NC(=O)[C@H](CC(=O)O)NC(=O)[C@@H](NC(=O)[C@@H](N)Cc4ccc(O)cc4)C(C)C)C(=O)N[C@@H](C(C)C)C(=O)N[C@@H](CCCNC(=N)N)C(=O)N[C@@H](CC(C)C)C(=O)N[C@@H](Cc4c[nH]cn4)C(=O)N[C@@H](CCC(=O)O)C(=O)N[C@@H](CO)C(=O)N2)NC(=O)[C@H](CSSC[C@@H](C(=O)N[C@@H](CCCNC(=N)N)C(=O)N[C@H](C(=O)N[C@@H](CCCNC(=N)N)C(=O)N[C@@H](Cc2c[nH]cn2)C(=O)N[C@@H](Cc2c[nH]cn2)C(=O)N[C@@H](Cc2c[nH]cn2)C(=O)N[C@@H](Cc2c[nH]cn2)C(=O)N[C@@H](Cc2c[nH]cn2)C(=O)N[C@@H](Cc2c[nH]cn2)C(=O)O)[C@@H](C)O)NC(=O)[C@H](Cc2ccc(O)cc2)NC(=O)[C@@H]2CSSC[C@H](NC(=O)[C@H](Cc4ccc(O)cc4)NC3=O)C(=O)N[C@@H](CCCCN)C(=O)N[C@@H](CCCCN)C(=O)N[C@@H](CCCNC(=N)N)C(=O)NCC(=O)N[C@@H](CC(=O)O)C(=O)N[C@@H](Cc3c[nH]c4ccccc34)C(=O)N[C@@H](CCCCN)C(=O)N[C@@H](CCC(=O)O)C(=O)N[C@@H](CCCNC(=N)N)C(=O)N2)NC(=O)[C@@H]2CCCN2C(=O)[C@H](C(C)C)NC(=O)[C@H](CCC(N)=O)NC(=O)[C@H](CCC(N)=O)NC(=O)CNC1=O` [Clone 2bO]: the “integrin binding specificity on K562 cell lines” value is recorded as “bound K562-αIIbβ3 cells only”.
Under `CC(C)C[C@@H]1NC(=O)[C@@H]2CSSC[C@@H]3NC(=O)[C@H]([C@@H](C)O)NC(=O)[C@H](C)NC(=O)[C@H](C)NC(=O)[C@@H]4CCCN4C(=O)[C@H](CC(=O)O)NC(=O)[C@H](CSSC[C@H](NC(=O)CNC(=O)[C@H](CCCNC(=N)N)NC(=O)[C@@H]4CCCN4C(=O)[C@H](CCCCN)NC(=O)[C@H](CC(=O)O)NC(=O)[C@H](CC(=O)O)NC(=O)[C@H](CC(=O)O)NC(=O)[C@H](CC(=O)O)NC(=O)[C@H](CCCCN)NC(=O)[C@H](Cc4ccc(O)cc4)NC(=O)[C@H](CC(=O)O)NC(=O)[C@@H](NC(=O)[C@@H](N)Cc4ccc(O)cc4)C(C)C)C(=O)N[C@@H](C(C)C)C(=O)N[C@@H](CCCNC(=N)N)C(=O)N[C@@H](CC(C)C)C(=O)N[C@@H](Cc4c[nH]cn4)C(=O)N[C@@H](CCC(=O)O)C(=O)N[C@@H](CO)C(=O)N2)NC(=O)[C@H](CSSC[C@@H](C(=O)N[C@@H](CCCNC(=N)N)C(=O)N[C@H](C(=O)N[C@@H](CCCNC(=N)N)C(=O)N[C@@H](Cc2c[nH]cn2)C(=O)N[C@@H](Cc2c[nH]cn2)C(=O)N[C@@H](Cc2c[nH]cn2)C(=O)N[C@@H](Cc2c[nH]cn2)C(=O)N[C@@H](Cc2c[nH]cn2)C(=O)N[C@@H](Cc2c[nH]cn2)C(=O)O)[C@@H](C)O)NC(=O)[C@H](Cc2ccc(O)cc2)NC(=O)[C@@H]2CSSC[C@H](NC(=O)[C@H](Cc4ccc(O)cc4)NC3=O)C(=O)N[C@@H](CC(C)C)C(=O)N[C@@H](CCCCN)C(=O)N[C@@H](CCCNC(=N)N)C(=O)NCC(=O)N[C@@H](CC(=O)O)C(=O)N[C@@H](Cc3c[nH]c4ccccc34)C(=O)N[C@@H](CCCCN)C(=O)NCC(=O)N[C@@H](CCCCN)C(=O)N2)NC(=O)[C@@H]2CCCN2C(=O)[C@H](C(C)C)NC(=O)[C@H](CCC(N)=O)NC(=O)[C@H](CCC(N)=O)NC(=O)CNC1=O` [Clone 2bA] stands “bound K562-αIIbβ3 cells only”.
